Holding throughout (assay type): physicochemical
Series [1] in a line: Measurement of phase transition temperature (polarizing optical microscope, heated 30° C. to 300° C. and cooled). As for the experimental part: 10 mg of the polymerizable liquid crystal compound (the polymerizable liquid crystal compounds 1 and 2 obtained in Examples 1 and 2, and a polymerizable liquid crystal compound shown by the following formula (3) (“LC242” manufactured by BASF) (Comparative Example 1) (hereinafter referred to as “polymerizable liquid crystal compound 3”)) was weighed, and placed between two glass substrates provided with a rubbed polyimide alignment film.
The substrates were heated from 30° C. to 300° C. on a hot plate, and then cooled to 30° C. A change in structure during a change in temperature was observed using a polarizing optical microscope (“ECLIPSE LV100POL” manufactured by Nikon Corporation) to determine the phase transition temperature.
In Table 1, “C” indicates “Crystal”, “N” indicates “Nematic”, and “I” indicates “Isotropic”.

A short description of series [2]: Mutual solubility at 23° C. by naked eye observation when forming the cured film. Conditions: naked eye observation of turbidity. More on the design: key: A case where turbidity was not observed was evaluated as “Good”; a case where turbidity was observed was evaluated as “Bad”. As for the experimental part: 100 parts of the polymerizable liquid crystal compound (1 to 3) was dissolved in 153 parts of cyclopentanone. After the addition of 3.3 parts of a photoinitiator (“Irgacure 379” manufactured by Ciba Specialty Chemicals Co., Ltd.), 6 parts of a polymerizable chiral compound (compound shown by the formula (X)), and 11.6 parts of a surfactant (“KH-40” manufactured by AGC Seimi Chemical Co., Ltd.; 1 wt % cyclopentanone solution), the components were homogenously dissolved to prepare a polymerizable liquid crystal composition solution.
When forming the cured film of the compound, the mutual solubility of the compound at 23° C. was evaluated by naked eye observation. A case where turbidity was not observed was evaluated as “Good”, and a case where turbidity was observed was evaluated as “Bad”.

Series [3] in a line: Solubility in cyclopentanone at 60° C., 40 wt % solution. The note with it: compound concentration 40 wt %. Also noted: key: a case where the compound was dissolved in cyclopentanone is indicated by “Good”; a case where the compound was not dissolved in cyclopentanone is indicated by “Bad”. As for the experimental part:
The solubility of the compound at 60° C. was evaluated when preparing a solution having a compound concentration of 40 wt %. In Table 1, a case where the compound was dissolved in cyclopentanone is indicated by “Good”, and a case where the compound was not dissolved in cyclopentanone is indicated by “Bad”.

Series [4] in a line: Measurement of optical anisotropy (value Δn) of cured polymer film. The note with it: cured polymer film 4 μm, 546 nm, Δn=Re/d. As for the experimental part:
100 parts of the polymerizable liquid crystal compound (1 to 3) was dissolved in 233 parts of cyclopentanone. 2.7 parts of a photoinitiator (“Irgacure 907” manufactured by Ciba Specialty Chemicals Co., Ltd.) was homogenously dissolved in the solution. The resulting solution was applied to a glass substrate provided with a rubbed polyimide alignment film using a bar coater (“SA-203” manufactured by Tester Sangyo Co., Ltd., Rod No. 4, shaft diameter: 12.7 mm). After drying the resulting film at 100° C. for 5 minutes on a hot plate, ultraviolet rays (1000 mJ/cm^2) were applied to the film from a mercury lamp to obtain a cured polymer film having a thickness of 4 μm.
The extinction position (θ) of the cured film was measured using an optical microscope (“ECLIPSE E600POL (transmission/reflection type)” manufactured by Nikon Corporation, equipped with a sensitive tint plate, a λ/4 wave plate, a Sénarmont compensator, and a GIF filter (546 nm). The retardation (Re) was calculated by “Re=λ(546 nm)×θ/180”. The value Δn was calculated by “Δn=Re/d” (where, d is the thickness of the liquid crystal layer). The calculation results are shown in Table 1.

The results in this text go back to patent publication US8454857B2, “Polymerizable liquid crystal compounds, polymerizable liquid crystal compositions, liquid crystalline polymers and optically anisotropic materials” (Zeon Corporation, priority 2008, dated 2013).

For `C=CC(=O)OCCCCOC(=O)Oc1ccc(C(=O)Oc2ccc(OC(=O)c3ccc(OC(=O)OCCCCOC(=O)C=C)cc3)c(C)c2)cc1` [Polymerizable liquid crystal compound 3], the “Liquid crystallinity temperature range” value in series [1] (heated from 30° C. to 300° C., then cooled to 30° C., between glass substrates with rubbed polyimide alignment film) came to 63 °C. For the same compound, the “liquid crystallinity temperature range (in words)” value in series [1] (summary of Table 1) is listed as “liquid crystallinity within a narrow temperature range”. Also, the Mutual solubility entry in series [2] is “Good”. Also, the Solubility result in series [3] was “Good”. In addition, in series [4], the Δn came to 0.142.
